In patent publication US12285435B2, “Multivesicular liposome formulations of dexamethasone” (Pacira Pharmaceuticals, Inc., priority 2021, dated 2025):

How the values were obtained:
[1] = DSP, rapid absorption into the blood stream; cited from earlier work
[2] = Pharmacokinetic study of subcutaneous DSP-MVL formulations vs bolus DSP in rats (dexamethasone plasma levels); type: in vivo; details: rat
Description: Pharmacokinetic (PK) studies of the subcutaneous dosing of DSP discussed herein were performed on rats where bolus DSP was compared to various formulations of DSP-MVLs at doses between 1.0 to 3.5 mg/kg for rats and at 0.5 mg/kg for beagles. Formulations 3AA, 5AA, 8AA, 11AA, 14AA, 4B, and 1C were diluted to 19-20% PPV from the initial PPV of about 30-45% with a final DSP concentration of approximately about 3 mg/mL to 3.5 mg/mL. Formulations 47-49 were not diluted, and the DSP concentration in the final product was approximately 7 mg/mL. In addition, PK studies of Formulation 18AA were performed on beagles through subcutaneous and epidural dosing of DSP of about 0.5 mg/kg.
Plasma samples were collected at different times points (0, 24, 48, 72, 96, 120, 144 and 168 hours post dose) for analysis. Blood samples were collected via the right saphenous vein using a 19-gauge needle prick or cardiac puncture for the final time point, placed into chilled tubes containing the appropriate anticoagulant, inverted several times to mix, protected from light, and kept on ice until centrifugation. A summary of the data in FIG. 1-6 is set forth below in Tables 1-2. For the rat studies, Cumulative % AUC is expressed as a percentage of the total AUC obtained in animals administered with Free DSP. For the dog studies, Cumulative % AUC is expressed as a percentage of the total AUC for each dog.
FIG. 1 is a line chart illustrating the dose normalized dexamethasone plasma levels obtained in rats as a function of time, following administration of several DSP-MVL formulations varying in internal pH (Formulations 47-49) as compared to DSP in a saline solution (“Free DSP Solution” Formulation).
FIG. 4 is a line chart illustrating the dose normalized dexamethasone plasma level obtained in rats as a function of time, following administration of two DSP-MVL formulations with and without triolein (Formulations 5AA and 3AA).
FIG. 5 is a line chart illustrating the dose normalized dexamethasone plasma levels obtained in rats as a function of time, following administration of several DSP-MVL formulations varying in lipid component concentrations (Formulations 4B and 1C).

[3] = percentage of the total AUC obtained in animals administered with Free DSP

dexamethasone sodium phosphate [Free DSP]
plasma half-life [1]: ~3.33 h
Tmax [2]: 1 h
AUC/dose ([2]; dose normalized): 1182 ng·h/mL/mg/kg
Cumulative AUC % at 7 days [2, 3]: 100%
Cumulative AUC % at 14 days [2, 3]: 100%
